Assay results: PubChem BioAssay (NCI)
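Interpolation was linear, between the two tested concentrations surrounding the appropriate level; five concentrations were tested over 48 hours in 96-well plates. TGI marks complete inhibition of growth.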

Tests used:
Experiment in all cases: growth of human tumour cells (NCI), 48 h
[1] = tested on: 786-0 renal
[2] = tested on: A498 renal
[3] = tested on: A549 NSCLC
[4] = tested on: ACHN renal
[5] = tested on: CCRF-CEM leukemia
[6] = tested on: COLO 205 colon
[7] = tested on: DLD-1 colon
[8] = tested on: DMS 114 small cell lung
[9] = tested on: DMS 273 small cell lung
[10] = tested on: EKVX NSCLC
[11] = tested on: HCC-2998 colon
[12] = tested on: HCT-116 colon
[13] = tested on: HCT-15 colon
[14] = tested on: HL-60(TB) leukemia
[15] = tested on: HOP-18 NSCLC
[16] = tested on: HOP-62 NSCLC
[17] = tested on: HT29 colon
[18] = tested on: IGROV1 ovarian
[19] = tested on: K-562 leukemia
[20] = tested on: KM12 colon
[21] = tested on: KM20L2 colon
[22] = tested on: LOX IMVI melanoma
[23] = tested on: LXFL 529 NSCLC
[24] = tested on: M14 melanoma
[25] = tested on: M19-MEL melanoma
[26] = tested on: MALME-3M melanoma
[27] = tested on: MOLT-4 leukemia
[28] = tested on: NCI-H226 lung
[29] = tested on: NCI-H23 lung
[30] = tested on: NCI-H460 lung
[31] = tested on: NCI-H522 lung
[32] = tested on: OVCAR-3 ovarian
[33] = tested on: OVCAR-5 ovarian
[34] = tested on: OVCAR-8 ovarian
[35] = tested on: RPMI-8226 leukemia
[36] = tested on: RXF 393 renal
[37] = tested on: SF-295 CNS
[38] = tested on: SF-539 CNS
[39] = tested on: SK-MEL-2 melanoma
[40] = tested on: SK-MEL-28 melanoma
[41] = tested on: SK-MEL-5 melanoma
[42] = tested on: SK-OV-3 ovarian
[43] = tested on: SN12C renal
[44] = tested on: SNB-19 CNS
[45] = tested on: SNB-75 CNS
[46] = tested on: SNB-78 CNS
[47] = tested on: SR leukemia
[48] = tested on: SW-620 colon
[49] = tested on: TK-10 renal
[50] = tested on: U251 CNS
[51] = tested on: UACC-257 melanoma
[52] = tested on: UACC-62 melanoma
[53] = tested on: UO-31 renal
[54] = tested on: XF 498 CNS
[55] = tested on: CAKI-1 renal
[56] = tested on: SF-268 CNS

COc1ccc(C)cc1C1CCC(=O)O1 (stereo unspecified)
TGI [1]: > 100 µM | TGI [2]: > 100 µM | TGI [3]: > 100 µM | TGI [4]: > 100 µM | TGI [5]: > 100 µM | TGI [6]: > 100 µM | TGI [7]: > 100 µM | TGI [8]: > 100 µM | TGI [9]: > 100 µM | TGI [10]: > 100 µM | TGI [11]: > 100 µM | TGI [12]: > 100 µM | TGI [13]: > 100 µM | TGI [14]: > 100 µM | TGI [15]: > 100 µM | TGI [16]: > 100 µM | TGI [17]: > 100 µM | TGI [18]: > 100 µM | TGI [19]: > 100 µM | TGI [20]: > 100 µM | TGI [21]: > 100 µM | TGI [22]: > 100 µM | TGI [23]: > 100 µM | TGI [24]: > 100 µM | TGI [25]: > 100 µM | TGI [26]: > 100 µM | TGI [27]: > 100 µM | TGI [28]: > 100 µM | TGI [29]: > 100 µM | TGI [30]: > 100 µM | TGI [31]: > 100 µM | TGI [32]: > 100 µM | TGI [33]: > 100 µM | TGI [34]: > 100 µM | TGI [35]: > 100 µM | TGI [36]: > 100 µM | TGI [37]: > 100 µM | TGI [38]: > 100 µM | TGI [39]: > 100 µM | TGI [40]: > 100 µM | TGI [41]: > 100 µM | TGI [42]: > 100 µM | TGI [43]: > 100 µM | TGI [44]: > 100 µM | TGI [45]: > 100 µM | TGI [46]: > 100 µM | TGI [47]: > 100 µM | TGI [48]: > 100 µM | TGI [49]: > 100 µM | TGI [50]: > 100 µM | TGI [51]: > 100 µM | TGI [52]: > 100 µM | TGI [53]: > 100 µM | TGI [54]: 99.2 µM

CN1CN(C(=O)N2CN(C)C(=O)N(C)C2)CN(C)C1=O
TGI [2]: > 100 µM | TGI [3]: > 100 µM | TGI [4]: > 100 µM | TGI [55]: > 100 µM | TGI [5]: > 100 µM | TGI [6]: > 100 µM | TGI [7]: > 100 µM | TGI [8]: > 100 µM | TGI [10]: > 100 µM | TGI [11]: > 100 µM | TGI [12]: > 100 µM | TGI [13]: > 100 µM | TGI [14]: > 100 µM | TGI [15]: > 100 µM | TGI [16]: > 100 µM | TGI [17]: > 100 µM | TGI [18]: > 100 µM | TGI [19]: > 100 µM | TGI [20]: > 100 µM | TGI [21]: > 100 µM | TGI [22]: > 100 µM | TGI [23]: > 100 µM | TGI [24]: > 100 µM | TGI [25]: > 100 µM | TGI [26]: > 100 µM | TGI [27]: > 100 µM | TGI [28]: > 100 µM | TGI [31]: > 100 µM | TGI [32]: > 100 µM | TGI [33]: > 100 µM | TGI [34]: > 100 µM | TGI [35]: > 100 µM | TGI [56]: > 100 µM | TGI [37]: > 100 µM | TGI [38]: > 100 µM | TGI [39]: > 100 µM | TGI [40]: > 100 µM | TGI [42]: > 100 µM | TGI [43]: > 100 µM | TGI [44]: > 100 µM | TGI [45]: > 100 µM | TGI [46]: > 100 µM | TGI [48]: > 100 µM | TGI [51]: > 100 µM | TGI [52]: > 100 µM | TGI [53]: > 100 µM | TGI [54]: > 100 µM
